Measured values published in patent US9050286B2, “Use of peptidic vasopression receptor agonists” (Ferring B.V., priority 2007, dated 2015).
Bridge positions count the residues as written; N and C are the ends. Square brackets hold non-standard residues; d marks the D form. Peptide text beside a SMILES is read from it. Ala(cPent) = N[C@@H](CC1CCCC1)C(=O)O; Orn(iPr) = CC(C)NCCC[C@H](N)C(=O)O; Cha = N[C@@H](CC1CCCCC1)C(=O)O; Orn = NCCC[C@H](N)C(=O)O; Dab = NCC[C@H](N)C(=O)O; Ac4c = NC1(C(=O)O)CCC1

biological target: T1, hV1a receptor (Homo sapiens, UniProt P37288); assay: hV1a receptor agonist transcriptional reporter (luciferase) assay in transiently transfected HEK-293 cells; format: cell-based; conditions: agonist activity; HEK-293 cells transiently transfected with hV1a receptor and calcium-responsive luciferase reporter; 5 hours exposure; geometric mean of at least three independent experiments; read-out: EC50 (median effective concentration)
T1 construct: expressed in transfected cells; host or cells: HEK-293
T1 sequence (P37288 whole entry): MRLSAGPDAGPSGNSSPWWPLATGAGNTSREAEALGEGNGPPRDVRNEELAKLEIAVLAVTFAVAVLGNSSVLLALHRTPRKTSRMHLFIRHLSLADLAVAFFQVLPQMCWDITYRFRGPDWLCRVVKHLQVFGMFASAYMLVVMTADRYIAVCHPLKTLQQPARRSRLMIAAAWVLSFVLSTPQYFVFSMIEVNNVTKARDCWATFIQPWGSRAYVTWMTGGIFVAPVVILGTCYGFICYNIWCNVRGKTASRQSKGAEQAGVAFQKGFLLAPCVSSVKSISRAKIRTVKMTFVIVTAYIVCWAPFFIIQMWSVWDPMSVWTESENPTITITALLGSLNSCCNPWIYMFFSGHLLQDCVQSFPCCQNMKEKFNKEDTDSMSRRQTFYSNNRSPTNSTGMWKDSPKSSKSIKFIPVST
Method: Agonist activity of compounds on the hV1a receptor was determined in a transcriptional reporter assay by transiently transfecting a hV1a receptor expression DNA into HEK-293 cells in concert with a reporter DNA containing intracellular calcium responsive promoter elements regulating expression of firefly luciferase. See Boss, V., Talpade, D. J., Murphy, T. J. J. Biol. Chem. 1996, May 3; 271(18), 10429-10432 for further guidance on this assay. […] Arginine-vasopressin (AVP) was used as an internal control in each experiment, and compounds were tested in at least three independent experiments.
The results of the in vitro assays are depicted in table 1 supra. The EC50 value given is the geometric mean expressed in nanomol/L (nM). Selectivity values are given as EC50 ratios.

Compound | EC50 [nM]
CC[C@H](C)[C@@H]1NC(=O)[C@H](CC2CCCCC2)NC(=O)[C@@H](N)CSSC[C@@H](C(=O)N2CCC[C@H]2C(=O)N[C@@H](CCCNC(C)C)C(=O)NCC(N)=O)NC(=O)[C@H](CC(N)=O)NC(=O)[C@H](CC(N)=O)NC1=O [Compound 4, [Cha^2, Asn^4, Orn (i-Pr)^8]VT] (H-C[Cha]INNCP[Orn(iPr)]G-NH2; disulfide 1-6) | 10.7
CC[C@H](C)[C@@H]1NC(=O)[C@H](CC2CCCC2)NC(=O)[C@@H](N)CSSC[C@@H](C(=O)N2CCC[C@H]2C(=O)N[C@@H](CCCN)C(=O)NCC(N)=O)NC(=O)[C@H](CC(N)=O)NC(=O)[C@H](CC(N)=O)NC1=O [Compound 7] (H-C[Ala(cPent)]INNCP[Orn]G-NH2; disulfide 1-6) | 7.7
CC[C@H](C)[C@@H]1NC(=O)C2(CCC2)NC(=O)[C@@H](N)CSSC[C@@H](C(=O)N2CCC[C@H]2C(=O)N[C@@H](CCN)C(=O)NCC(N)=O)NC(=O)[C@H](CC(N)=O)NC(=O)[C@H](CC(N)=O)NC1=O [Compound 9] (H-C[Ac4c]INNCP[Dab]G-NH2; disulfide 1-6; N-terminus assumed) | 14.8
CC[C@H](C)[C@@H]1NC(=O)[C@H](CC2CCCCC2)NC(=O)[C@@H](N)CSSC[C@@H](C(=O)N2CCC[C@H]2C(=O)N[C@@H](CCN)C(=O)NCC(N)=O)NC(=O)[C@H](CC(N)=O)NC(=O)[C@H](CC(N)=O)NC1=O [Compound 12] (H-C[Cha]INNCP[Dab]G-NH2; disulfide 1-6; N-terminus assumed) | 2.28

Further lines, results first:

EC50 [nM] | Compound
7.93 | CC[C@H](C)[C@@H]1NC(=O)C2(CCC2)NC(=O)[C@@H](N)CSSC[C@@H](C(=O)N2CCC[C@H]2C(=O)N[C@@H](CCCN)C(=O)NCC(N)=O)NC(=O)[C@H](CC(N)=O)NC(=O)[C@H](CC(N)=O)NC1=O [Compound 6] (H-C[Ac4c]INNCP[Orn]G-NH2; disulfide 1-6)
0.75 | CC[C@H](C)[C@@H]1NC(=O)[C@H](CC2CCCCC2)NC(=O)[C@@H](N)CSSC[C@@H](C(=O)N2CCC[C@H]2C(=O)N[C@@H](CCCN)C(=O)NCC(N)=O)NC(=O)[C@H](CC(N)=O)NC(=O)[C@H](CC(N)=O)NC1=O [Compound 8] (H-C[Cha]INNCP[Orn]G-NH2; disulfide 1-6)
